# Assay results from patent publication US12637468B2, “Substituted [1,2,4]triazolo[4,3-b]pyridazines as GABAA receptor modulators” (SHANGHAI SIMR BIOTECHNOLOGY CO., LTD., priority 2019, dated 2026).
# Target: T1, α5-GABAA receptor (Homo sapiens, UniProt P18507+P31644)
# T1 construct: expressed in transfected cells; host or cells: HEK293, monoclonal stably transfected line
# Assay: Cell-level screening: whole cell patch clamp, inverse agonist efficacy on α5-GABAA receptor expressed in HEK293
# Type: cell-based
# Conditions: drug 100 nM, GABA 0.05 μM, HEK293 expressing α5, β3 and γ2 subunits, clamped at −60 mV; read-out: Compound inverse agonist efficacy %
# Procedure: The inventors used electrophysiological methods to determine the inverse agonist efficacy of the drugs to be tested on the α5-GABAA receptor. The detailed methods are as follows:
# Different subunits of GABAA receptors were expressed in human […] cell line 293 (HEK293) cell line. The cells were cultured in a culture medium and used as a cell model for screening pain inhibiting drugs. The α, β and γ subunits are necessary to form complete functional GABAA receptors. In this embodiment, the inventors had established the following cell model: α5 subunit (see GenBank Accession No. NM_000810.3 for protein sequences), β3 subunit (see GenBank Accession No. NM_000814.5 for protein sequences) and γ2 subunit (see GenBank Accession No. NM_000816.3 for protein sequences) were expressed in HEK293 cell line at the same time, followed by screening the monoclonal cell line. This cell line contained α5-GABAA receptor and had complete GABAA receptor function.
# The monoclonal stably transfected HEK-293 cells expressing α5-GABAA receptor were cultured in 10 cm culture dishes and passaged when the cells grew to 80%-90%. During passaging, the culture medium was aspirated first, then 3 mL of DPBS phosphate buffer salt (Gibco™) was added to the culture dishes, and the culture dishes were shaken slightly, and DPBS was aspirated. 1 mL of trypsin (TrypLE Express, Gibco™) was added thereto, and the cells were digested at 37° C. for 1-2 minutes. Then 3 mL of complete medium (DMEM+10% FBS (Gibco™)) was added and the cells at the bottom of the culture dishes were dispersed. The cell suspension were transferred to a 15 mL centrifugal tube (Corning) and then centrifuged at 200 g for 3 minutes. The supernatant was discarded, 4 mL of complete medium was added, and the cells were gently blown and resuspended for use. If cell passaging was performed, the cell suspension was diluted at a ratio of 1:5 or 1:10. If cells for electrophysiology use were prepared, the cell suspension was diluted in a ratio of 1:12, then added into a 24-well dish (Corning™) in which glass slides were placed and pretreated with Poly-D-Lysine, and the cells were tested after being attached to the walls. The culture time of cells for electrophysiology use was no more than 48 hours.
# Drug concentration setting: the final drug concentration used in drug screening was 100 nM, and the GABA concentration range was 0.05 μM. The final drug concentrations used in the dose-inversal agonistic efficiency (%) test were 0.3 nM, 3 nM, 10 nM, 30 nM, 100 nM and 300 nM. The whole cell patch clamp technique was used in electrophysiological experiments, which could refer to the literature (I. Lecker, Y. Yin, D. S. Wang and B. A. Orser, (2013) Potentiation of GABAA receptor activity by volatile anaesthetics is reduced by α5-GABAA receptor-preferring inverse agonists, British Journal of Anaesthesia 110 (S1): i73-i81). The components of extracellular solution (ECS) for electrophysiology use were as follows: 150 mM NaCl, 5 mM KCl, 2.5 mM CaCl2), 1 mM MgCl2, 10 mM HEPES and 10 mM glucose (pH 7.4); electrode internal solutions for electrophysiology use were as follows: 140 mM CsCl, 11 mM EGTA, 10 mM HEPES, 2 mM CaCl2), 1 mM MgCl2, 4 mM MgATP, 2 mM TEA (pH 7.3). The signal acquisition used an EPC-10 amplifier and the PatchMaster software (HEKA). The recording electrode was drawn using borosilicate glass, and the electrode resistance was 4 to 6 MΩ. The ALA-VC3-8PP™ system was used for extracellular administration. Separate cells that grew independently was selected for recording. During recording, the cell membrane potential was clamped at −60 mV. During experiment, an extracellular solution was applied to the cells for about 20 seconds. When the baseline reached to a stable state, the extracellular solution was switched to GABA. Then the current induced by GABA could be detected. […]
# T1 sequence (P31644 32-462): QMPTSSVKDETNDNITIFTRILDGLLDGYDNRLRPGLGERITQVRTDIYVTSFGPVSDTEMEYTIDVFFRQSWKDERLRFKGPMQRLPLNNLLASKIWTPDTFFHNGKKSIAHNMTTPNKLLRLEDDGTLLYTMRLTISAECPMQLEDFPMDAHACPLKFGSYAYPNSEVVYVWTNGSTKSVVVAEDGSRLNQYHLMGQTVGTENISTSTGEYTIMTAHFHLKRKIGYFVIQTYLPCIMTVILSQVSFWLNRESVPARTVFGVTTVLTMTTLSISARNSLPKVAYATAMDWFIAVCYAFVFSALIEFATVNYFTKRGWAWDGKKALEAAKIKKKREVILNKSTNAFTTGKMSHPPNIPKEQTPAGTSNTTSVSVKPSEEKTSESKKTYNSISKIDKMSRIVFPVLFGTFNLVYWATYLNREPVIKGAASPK
# T1 sequence (P28472 26-473 partner): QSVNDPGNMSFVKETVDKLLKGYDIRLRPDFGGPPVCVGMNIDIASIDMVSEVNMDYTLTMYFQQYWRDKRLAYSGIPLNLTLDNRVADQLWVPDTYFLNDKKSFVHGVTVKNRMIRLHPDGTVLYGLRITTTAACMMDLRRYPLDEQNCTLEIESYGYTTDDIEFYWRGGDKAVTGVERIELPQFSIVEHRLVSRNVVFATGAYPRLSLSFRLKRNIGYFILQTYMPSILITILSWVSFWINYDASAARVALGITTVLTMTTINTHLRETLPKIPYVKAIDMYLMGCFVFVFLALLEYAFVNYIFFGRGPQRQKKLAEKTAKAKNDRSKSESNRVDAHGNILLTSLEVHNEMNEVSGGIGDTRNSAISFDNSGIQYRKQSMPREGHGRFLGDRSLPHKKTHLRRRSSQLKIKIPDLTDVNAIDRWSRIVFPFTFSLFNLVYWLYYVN
# T1 sequence (P18507 40-467 isoform P18507-1 limits assumed): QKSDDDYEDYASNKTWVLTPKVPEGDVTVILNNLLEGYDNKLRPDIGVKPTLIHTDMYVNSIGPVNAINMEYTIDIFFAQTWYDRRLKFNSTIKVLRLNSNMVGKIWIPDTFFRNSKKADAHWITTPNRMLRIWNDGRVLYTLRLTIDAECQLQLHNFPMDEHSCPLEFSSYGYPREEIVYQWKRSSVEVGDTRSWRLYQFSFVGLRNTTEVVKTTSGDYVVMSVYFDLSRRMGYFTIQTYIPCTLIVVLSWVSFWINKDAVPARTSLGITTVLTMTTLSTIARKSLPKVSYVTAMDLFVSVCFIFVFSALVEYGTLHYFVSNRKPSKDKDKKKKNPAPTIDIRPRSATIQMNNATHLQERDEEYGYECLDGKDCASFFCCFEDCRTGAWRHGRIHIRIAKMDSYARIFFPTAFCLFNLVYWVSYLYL
row,SMILES,inhibition at 0.1 µM
1,COc1cc2nnc(-c3cc(C)on3)n2nc1OCc1ccc2c(cnn2C)n1 [Embodiment 73],34.5%
2,COc1cc2nnc(-c3cc(C)on3)n2nc1OCc1cccn(C)c1=O [Embodiment 74],40.4%
3,CCn1cccc(COc2nn3c(-c4cc(C)on4)nnc3cc2OC)c1=O [Embodiment 76],41.6%
4,COc1cc2nnc(-c3cc(C)on3)n2nc1OCc1ccc2c(n1)CCN(CC(F)(F)F)C2 [Embodiment 77],44.8%
5,COc1cc2nnc(-c3cc(C)on3)n2nc1OCc1ccc2c(n1)CCN(C(=O)C1CC1)C2 [Embodiment 81],45.9%
6,COc1cc2nnc(-c3cc(C)on3)n2nc1OCc1ccc2c(n1)CCN(CC1CC1)C2 [Embodiment 82],47.9%
7,COCCCOc1cnc(COc2nn3c(-c4cc(C)on4)nnc3cc2OC)cn1 [Embodiment 86],41.8%
8,COc1cc2nnc(-c3cc(C)on3)n2nc1OCc1ccc2c(n1)CCN(CCC#N)C2=O [Embodiment 91],47.8%
9,COCCn1ccc2ccc(COc3nn4c(-c5cc(C)on5)nnc4cc3OC)nc21 [Embodiment 92],52.8%
10,COCCCn1ccc2ccc(COc3nn4c(-c5cc(C)on5)nnc4cc3OC)nc21 [Embodiment 93],36.5%
11,COc1cc2nnc(-c3cc(C)on3)n2nc1OCc1ccc2ncn(C)c2n1 [Embodiment 101],32.9%
12,COc1cc2nnc(-c3cc(C)on3)n2nc1OCc1ccc2nccn2n1 [Embodiment 105],49.3%
13,"CCOC(=O)N1CCc2nc(COc3nn4c(-c5cc(C)on5)nnc4cc3OC)ccc2C1 [Embodiment 111, Ethyl 2-(((7-methoxy-3-(5-methylisoxazol-3-yl)-[1,2,4]triazolo[4,3-b]pyridazin-6-yl)oxy)methyl)7,8-dihydro-1,6-naphthyridine-6(5H)-carboxylate]",59.6%
14,COc1cc2nnc(-c3cc(C)on3)n2nc1OCc1ccc(C2CCNCC2)cn1 [Embodiment 116],44.9%
15,COc1cc2nnc(-c3cc(C)on3)n2nc1OCc1cccc2ccnn12 [Embodiment 117],32.3%
16,COc1cc2nnc(-c3cc(C)on3)n2nc1OCc1ccc2c(n1)NCCO2 [Embodiment 119],35.9%
17,COc1cc2nnc(-c3cc(C)on3)n2nc1OCc1ccc2c(n1)CNCC2 [Embodiment 120],42.6%
18,COc1cc2nnc(-c3cc(C)on3)n2nc1OCc1cccc(C2CCNC2)n1 (stereo not drawn) [Embodiment 123],36.7%
19,COc1cc2nnc(-c3cc(C)on3)n2nc1OCc1cccc(C2(F)CCNC2)n1 (stereo not drawn) [Embodiment 125],41.8%
20,COc1cc2nnc(-c3cc(C)on3)n2nc1OCc1ccc2c(n1)CCN(C(=O)c1ccccc1)C2 [Embodiment 131],52.2%
21,COc1cc2nnc(-c3cc(C)on3)n2nc1OCc1ccc(OCCN2CCC2)cn1 [Embodiment 133],36.9%
22,COc1cc2nnc(-c3cc(C)on3)n2nc1OCc1ccc2ccccc2n1 [Embodiment 138],42.9%
23,COc1cc2nnc(-c3cc(C)on3)n2nc1OCc1ccc2c(n1)CCN(C)C2=O [Embodiment 142],50.2%
24,COc1cc2nnc(-c3cc(C)on3)n2nc1OCc1ccc2c(n1)CCN(C(=O)CC#N)C2 [Embodiment 143],49.6%
25,COc1cc2nnc(-c3cc(C)on3)n2nc1OCc1ccc2c(=O)n(C3COC3)ccc2n1 [Embodiment 144],42%
26,COc1cc2nnc(-c3cc(C)on3)n2nc1OCc1ccc2c(n1)N(C)CCO2 [Embodiment 149],71.7%

# Other lines, results leading:
row,inhibition at 0.1 µM,SMILES
1,54.3%,COc1nccc(COc2nn3c(-c4cc(C)on4)nnc3cc2OC)n1 [Embodiment 72]
2,47.6%,CCN1CCc2nc(COc3nn4c(-c5cc(C)on5)nnc4cc3OC)ccc2C1 [Embodiment 79]
3,39.9%,COc1cc2nnc(-c3cc(C)on3)n2nc1OCc1ccc2c(n1)CCN(C(C)C)C2 [Embodiment 83]
4,39.7%,"COc1cc2nnc(-c3cc(C)on3)n2nc1OCc1ccc2c(n1)CCN(c1ccccc1)C2 [Embodiment 87, 3-(7-Methoxy-6-((6-phenyl-5,6,7,8-tetrahydro-1,6-naphthalen-2-yl)methoxy)-[1,2,4]triazolo[4,3-b]pyridazin-3-yl)-5-methylisoxazole]"
5,47.2%,COc1cc2nnc(-c3cc(C)on3)n2nc1OCc1ccc2c(n1)CNC2=O [Embodiment 89]
6,32.9%,COc1cc2nnc(-c3cc(C)on3)n2nc1OCc1ccc2ccn(C)c2n1 [Embodiment 94]
7,48.1%,COc1cc2nnc(-c3cc(C)on3)n2nc1OCc1ccc(C2(F)CCCNC2)cn1 (stereo not drawn) [Embodiment 95]
8,38.8%,COc1cc2nnc(-c3cc(C)on3)n2nc1OCc1ccc(C2CCNC2)cn1 (stereo not drawn) [Embodiment 96]
9,32.6%,COc1cc2nnc(-c3cc(C)on3)n2nc1OCc1ccc2c(ccn2C)n1 [Embodiment 97]
10,38%,COc1cc2nnc(-c3cc(C)on3)n2nc1OCc1ccc2c(n1)CNC2 [Embodiment 98]
11,48.2%,COc1cc2nnc(-c3cc(C)on3)n2nc1OCc1cccc2cnnn12 [Embodiment 104]
12,60.4%,COc1cc2nnc(-c3cc(C)on3)n2nc1OCc1ccc(OCC2CCCO2)cn1 (stereo not drawn) [Embodiment 106]
13,54.9%,"C=CC(=O)N1CCc2nc(COc3nn4c(-c5cc(C)on5)nnc4cc3OC)ccc2C1 [Embodiment 108, 1-(2-(((7-Methoxy-3-(5-methylisoxazol-3-yl)-[1,2,4]triazolo[4,3-b]pyridazin-6-yl)oxy)methyl)-7,8-dihydro-1,6-naphthyridin-6(5H)-yl)prop-2-en-1-one]"
14,63.7%,COc1cc2nnc(-c3cc(C)on3)n2nc1OCc1ccc2c(ncn2C)n1 [Embodiment 118]
15,37.4%,COc1cc2nnc(-c3cc(C)on3)n2nc1OCc1cc2c(cn1)OCCO2 [Embodiment 121]
16,57.3%,COCCOc1ccc(COc2nn3c(-c4noc(C)n4)nnc3cc2OC)nc1 [Embodiment 132]
17,30.4%,CCN1CC(Oc2ccc(COc3nn4c(-c5cc(C)on5)nnc4cc3OC)nc2)C1 [Embodiment 134]
18,37.3%,COc1ccc2nc(COc3nn4c(-c5cc(C)on5)nnc4cc3OC)ccc2c1 [Embodiment 136]
19,47.2%,"COc1cc2nnc(-c3cc(C)on3)n2nc1OCc1ccc(-c2nc(C)no2)cn1 [Embodiment 137, 5-(6-(((7-Methoxy-3-(5-methylisoxazol-3-yl)-[1,2,4]triazolo[4,3-b]pyridazin-6-yl)oxy)methyl)pyridin-3-yl)-3-methyl-1,2,4-oxadiazole]"
20,49%,COCCCn1ccc2nc(COc3nn4c(-c5cc(C)on5)nnc4cc3OC)ccc2c1=O [Embodiment 139]
21,49.3%,COc1cc2nnc(-c3cc(C)on3)n2nc1OCc1ccc2cnccc2n1 [Embodiment 140]
22,51.3%,CCOc1nccc2nc(COc3nn4c(-c5cc(C)on5)nnc4cc3OC)ccc12 [Embodiment 145]
23,33.4%,COCCOc1nccc2nc(COc3nn4c(-c5cc(C)on5)nnc4cc3OC)ccc12 [Embodiment 146]
24,39.8%,COCCn1ccc2nc(COc3nn4c(-c5cc(C)on5)nnc4cc3OC)ccc2c1=O [Embodiment 147]
25,69.6%,CCn1ccc2nc(COc3nn4c(-c5cc(C)on5)nnc4cc3OC)ccc2c1=O [Embodiment 148]
